Results as given in paper PMC11233931, “Remodeling tumor‐associated macrophage for anti‐cancer effects by rational design of irreversible inhibition of mitogen‐activated protein kinase‐activated protein kinase 2” (MedComm, 2024).

Key:
Test in all cases: Eurofins kinase selectivity profile against 380 other human recombinant kinases (Table S2)
Format in all cases: biochemical
[1] = target: T1, 380 human recombinant protein kinases (Homo sapiens, UniProt Q99683); details: ASK1(h), read-out: Inhibition rate
T1 construct: purchased Eurofins (Celle Lévescault)
T1 sequence (Q99683 1-1374): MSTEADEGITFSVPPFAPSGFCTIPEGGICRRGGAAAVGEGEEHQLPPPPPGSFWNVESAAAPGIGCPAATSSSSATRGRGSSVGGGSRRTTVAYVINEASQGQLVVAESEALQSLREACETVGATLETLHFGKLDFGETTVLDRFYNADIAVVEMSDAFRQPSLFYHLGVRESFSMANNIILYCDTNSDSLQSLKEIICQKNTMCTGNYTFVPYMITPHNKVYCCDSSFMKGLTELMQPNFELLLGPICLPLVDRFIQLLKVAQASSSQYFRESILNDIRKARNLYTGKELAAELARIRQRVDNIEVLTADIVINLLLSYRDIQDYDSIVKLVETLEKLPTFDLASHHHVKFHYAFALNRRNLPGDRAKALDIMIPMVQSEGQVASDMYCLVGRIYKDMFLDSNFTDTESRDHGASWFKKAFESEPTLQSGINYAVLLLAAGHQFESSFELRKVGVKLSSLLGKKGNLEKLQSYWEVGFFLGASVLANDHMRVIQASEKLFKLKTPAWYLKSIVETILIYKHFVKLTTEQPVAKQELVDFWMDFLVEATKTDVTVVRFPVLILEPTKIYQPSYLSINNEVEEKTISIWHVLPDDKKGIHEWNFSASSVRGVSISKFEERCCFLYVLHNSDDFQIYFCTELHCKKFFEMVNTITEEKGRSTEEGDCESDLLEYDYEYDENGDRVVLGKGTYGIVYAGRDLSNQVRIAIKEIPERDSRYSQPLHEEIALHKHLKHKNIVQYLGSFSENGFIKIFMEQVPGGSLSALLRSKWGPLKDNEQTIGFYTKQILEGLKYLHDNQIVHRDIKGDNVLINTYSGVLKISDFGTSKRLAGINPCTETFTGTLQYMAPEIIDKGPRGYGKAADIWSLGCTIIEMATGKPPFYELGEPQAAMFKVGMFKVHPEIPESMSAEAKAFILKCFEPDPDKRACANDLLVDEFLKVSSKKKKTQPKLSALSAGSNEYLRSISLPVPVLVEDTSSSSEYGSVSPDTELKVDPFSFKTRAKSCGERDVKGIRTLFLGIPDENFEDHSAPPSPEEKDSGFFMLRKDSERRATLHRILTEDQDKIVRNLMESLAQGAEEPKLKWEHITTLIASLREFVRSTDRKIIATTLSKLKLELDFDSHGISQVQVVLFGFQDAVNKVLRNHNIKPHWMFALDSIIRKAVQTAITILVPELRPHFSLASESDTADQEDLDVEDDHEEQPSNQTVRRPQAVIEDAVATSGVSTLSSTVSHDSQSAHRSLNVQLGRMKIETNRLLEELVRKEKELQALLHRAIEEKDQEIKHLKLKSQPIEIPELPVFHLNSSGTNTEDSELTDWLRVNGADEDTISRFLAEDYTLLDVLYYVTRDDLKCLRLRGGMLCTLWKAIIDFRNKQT
In short: (§1)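 To gauge specificity for MK2, the compound is profiled externally at various concentrations on recombinant human kinases, 380 in total.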

[2] = target: T2, 380 human recombinant protein kinases (Homo sapiens, UniProt P48730); details: CK1δ(h), read-out: Inhibition rate
T2 construct: purchased Eurofins (Celle Lévescault)
T2 sequence (P48730 whole entry): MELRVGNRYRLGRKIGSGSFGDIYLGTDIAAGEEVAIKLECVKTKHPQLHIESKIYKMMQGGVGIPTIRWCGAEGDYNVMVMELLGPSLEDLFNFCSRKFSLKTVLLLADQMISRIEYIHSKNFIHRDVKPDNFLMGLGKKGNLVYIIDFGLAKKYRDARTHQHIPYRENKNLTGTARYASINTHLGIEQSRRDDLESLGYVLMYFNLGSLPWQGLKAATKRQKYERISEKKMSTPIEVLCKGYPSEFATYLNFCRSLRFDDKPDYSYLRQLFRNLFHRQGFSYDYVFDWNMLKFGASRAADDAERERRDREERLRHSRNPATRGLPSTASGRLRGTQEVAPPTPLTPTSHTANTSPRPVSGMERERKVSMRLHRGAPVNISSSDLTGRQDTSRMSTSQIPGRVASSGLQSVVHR
In short: as §1

[3] = target: T3, 380 human recombinant protein kinases (Homo sapiens, UniProt P00519, M351T); details: Abl (M351T)(h), read-out: Inhibition rate
T3 construct: purchased Eurofins (Celle Lévescault)
In short: as §1

[4] = target: T4, 380 human recombinant protein kinases (Homo sapiens, UniProt Q13315); details: ATM(h), read-out: Inhibition rate (%)
T4 construct: purchased Eurofins (Celle Lévescault)
T4 sequence (Q13315 whole entry): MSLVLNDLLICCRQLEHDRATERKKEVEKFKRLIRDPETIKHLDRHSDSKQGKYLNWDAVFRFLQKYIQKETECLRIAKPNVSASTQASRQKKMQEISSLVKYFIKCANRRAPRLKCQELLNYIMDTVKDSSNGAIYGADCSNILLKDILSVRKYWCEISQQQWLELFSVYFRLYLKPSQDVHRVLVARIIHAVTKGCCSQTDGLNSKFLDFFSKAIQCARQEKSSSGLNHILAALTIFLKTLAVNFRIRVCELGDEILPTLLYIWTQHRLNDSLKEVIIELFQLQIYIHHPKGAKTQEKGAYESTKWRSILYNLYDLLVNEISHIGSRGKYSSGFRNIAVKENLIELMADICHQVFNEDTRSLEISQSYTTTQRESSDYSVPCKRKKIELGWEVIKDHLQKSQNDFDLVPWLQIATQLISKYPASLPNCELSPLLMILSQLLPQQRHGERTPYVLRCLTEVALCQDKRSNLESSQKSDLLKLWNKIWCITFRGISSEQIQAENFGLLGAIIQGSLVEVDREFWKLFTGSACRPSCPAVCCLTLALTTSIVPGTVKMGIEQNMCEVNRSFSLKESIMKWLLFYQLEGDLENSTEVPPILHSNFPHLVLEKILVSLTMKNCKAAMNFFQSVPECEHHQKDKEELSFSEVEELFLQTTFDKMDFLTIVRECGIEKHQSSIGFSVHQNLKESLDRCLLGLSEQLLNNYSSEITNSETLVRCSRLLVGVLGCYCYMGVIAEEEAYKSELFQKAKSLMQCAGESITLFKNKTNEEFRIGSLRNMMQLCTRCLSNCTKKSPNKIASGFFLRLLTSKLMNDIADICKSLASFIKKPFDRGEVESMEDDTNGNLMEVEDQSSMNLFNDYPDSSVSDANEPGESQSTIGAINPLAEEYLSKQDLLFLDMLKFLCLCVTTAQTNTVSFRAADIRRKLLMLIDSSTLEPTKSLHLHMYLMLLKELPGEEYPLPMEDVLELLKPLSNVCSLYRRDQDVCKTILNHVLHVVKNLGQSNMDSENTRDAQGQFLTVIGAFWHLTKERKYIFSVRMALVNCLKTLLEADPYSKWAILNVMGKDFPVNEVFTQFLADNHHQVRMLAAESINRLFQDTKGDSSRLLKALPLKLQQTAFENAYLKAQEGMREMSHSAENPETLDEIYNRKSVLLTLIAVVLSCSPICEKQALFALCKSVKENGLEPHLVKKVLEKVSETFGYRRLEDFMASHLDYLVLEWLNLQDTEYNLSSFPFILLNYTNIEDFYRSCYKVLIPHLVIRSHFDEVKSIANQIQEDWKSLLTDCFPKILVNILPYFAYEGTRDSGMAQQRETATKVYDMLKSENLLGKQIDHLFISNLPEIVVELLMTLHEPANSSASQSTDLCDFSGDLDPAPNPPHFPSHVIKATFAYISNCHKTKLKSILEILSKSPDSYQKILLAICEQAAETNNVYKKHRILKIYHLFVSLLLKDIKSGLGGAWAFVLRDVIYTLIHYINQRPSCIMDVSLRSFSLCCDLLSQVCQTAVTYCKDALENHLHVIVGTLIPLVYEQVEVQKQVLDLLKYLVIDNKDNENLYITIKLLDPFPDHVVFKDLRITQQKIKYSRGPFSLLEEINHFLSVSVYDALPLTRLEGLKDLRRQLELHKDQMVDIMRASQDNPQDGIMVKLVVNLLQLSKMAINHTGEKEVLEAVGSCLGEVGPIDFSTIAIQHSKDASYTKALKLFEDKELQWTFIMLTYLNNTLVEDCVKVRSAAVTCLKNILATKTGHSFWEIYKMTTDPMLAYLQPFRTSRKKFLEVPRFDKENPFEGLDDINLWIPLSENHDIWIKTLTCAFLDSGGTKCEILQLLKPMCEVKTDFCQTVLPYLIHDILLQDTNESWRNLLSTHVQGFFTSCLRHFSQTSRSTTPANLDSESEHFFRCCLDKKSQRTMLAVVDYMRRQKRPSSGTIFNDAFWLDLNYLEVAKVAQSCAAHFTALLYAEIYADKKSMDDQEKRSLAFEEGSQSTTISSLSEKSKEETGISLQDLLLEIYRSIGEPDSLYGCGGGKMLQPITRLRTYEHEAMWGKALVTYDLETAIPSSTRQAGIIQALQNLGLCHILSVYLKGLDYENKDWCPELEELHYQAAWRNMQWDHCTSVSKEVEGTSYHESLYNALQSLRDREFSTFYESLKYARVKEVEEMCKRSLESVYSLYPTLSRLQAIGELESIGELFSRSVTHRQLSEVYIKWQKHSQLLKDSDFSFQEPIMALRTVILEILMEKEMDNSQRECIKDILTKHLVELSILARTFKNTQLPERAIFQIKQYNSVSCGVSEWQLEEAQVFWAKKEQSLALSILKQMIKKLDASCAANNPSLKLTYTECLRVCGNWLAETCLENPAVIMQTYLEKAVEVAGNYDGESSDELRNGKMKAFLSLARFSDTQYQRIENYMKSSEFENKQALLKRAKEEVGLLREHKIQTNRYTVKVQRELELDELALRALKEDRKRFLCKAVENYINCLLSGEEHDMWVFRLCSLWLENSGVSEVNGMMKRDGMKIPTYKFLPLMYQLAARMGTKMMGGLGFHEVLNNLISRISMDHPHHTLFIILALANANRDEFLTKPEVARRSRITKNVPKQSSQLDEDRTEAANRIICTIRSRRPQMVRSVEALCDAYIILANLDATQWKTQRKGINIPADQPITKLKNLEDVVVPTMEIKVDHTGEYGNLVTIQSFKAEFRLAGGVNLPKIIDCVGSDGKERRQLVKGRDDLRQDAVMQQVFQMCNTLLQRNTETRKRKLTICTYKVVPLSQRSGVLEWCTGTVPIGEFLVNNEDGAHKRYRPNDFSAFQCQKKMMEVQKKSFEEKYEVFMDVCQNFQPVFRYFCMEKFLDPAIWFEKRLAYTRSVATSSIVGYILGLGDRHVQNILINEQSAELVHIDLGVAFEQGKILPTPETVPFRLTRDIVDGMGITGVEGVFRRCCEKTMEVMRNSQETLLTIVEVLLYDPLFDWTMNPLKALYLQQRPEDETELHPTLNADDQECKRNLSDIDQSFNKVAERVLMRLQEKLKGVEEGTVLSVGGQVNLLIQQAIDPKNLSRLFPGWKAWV
In short: as §1

SMILES: C=CC(=O)Nc1cc(-c2cc(-c3cc4c([nH]3)CCNC4=O)ccn2)ccc1OC(F)(F)F [compound 11]
- inhibition at 0.01 µM ([1]; 10 nM): 14%
- inhibition at 0.1 µM ([1]; 100 nM): 33%
- inhibition at 1 µM ([1]; 1000 nM): 83%
- inhibition at 0.01 µM ([2]; 10 nM): 3%
- inhibition at 0.1 µM ([2]; 100 nM): 26%
- inhibition at 1 µM ([2]; 1000 nM): 74%
- inhibition at 0.01 µM ([3]; 10 nM): 9%
- inhibition at 0.1 µM ([3]; 100 nM): 2%
- inhibition at 1 µM ([3]; 1000 nM): 22%
- inhibition at 0.01 µM ([4]; 10 nM): -3%
- inhibition at 0.1 µM ([4]; 100 nM): -6%
- inhibition at 1 µM ([4]; 1000 nM): -9%
